Data published in patent US11414425B2 (priority 2018, dated 2022).

Tests used:
[1] = biological target: α5β3γ2 GABAA receptors (Homo sapiens, UniProt P18507+P31644); assay: [3H]Ro15-1788 binding, membranes of Ltk cells stably expressing α5β3γ2 GABAA receptors; conditions: ranges; inhibition of [3H]Ro15-1788 binding
[2] = biological target: T1, GABAA receptors (α5β2γ2) (Homo sapiens, UniProt P18507+P31644); assay: Positive allosteric modulator activity: potentiation of EC20 GABA current in oocytes; format: cell-based; conditions: read-out: GABA α5 Functional Data (potentiation of EC20 GABA); @ 100 nM; ranges
T1 construct: expressed in transfected cells
T1 sequence (P31644 32-462): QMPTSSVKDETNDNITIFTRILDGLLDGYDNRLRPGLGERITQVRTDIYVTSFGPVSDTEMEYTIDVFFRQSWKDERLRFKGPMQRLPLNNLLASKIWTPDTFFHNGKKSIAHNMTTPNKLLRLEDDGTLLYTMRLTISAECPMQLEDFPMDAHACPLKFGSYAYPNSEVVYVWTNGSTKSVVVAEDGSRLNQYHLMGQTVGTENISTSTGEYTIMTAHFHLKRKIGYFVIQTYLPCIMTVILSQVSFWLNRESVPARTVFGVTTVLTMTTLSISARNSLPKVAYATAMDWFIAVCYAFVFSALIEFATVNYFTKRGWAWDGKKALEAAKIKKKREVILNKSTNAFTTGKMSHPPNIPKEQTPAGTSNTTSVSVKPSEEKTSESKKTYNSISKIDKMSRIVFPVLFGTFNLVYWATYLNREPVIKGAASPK
T1 sequence (P47870 25-512, further chain): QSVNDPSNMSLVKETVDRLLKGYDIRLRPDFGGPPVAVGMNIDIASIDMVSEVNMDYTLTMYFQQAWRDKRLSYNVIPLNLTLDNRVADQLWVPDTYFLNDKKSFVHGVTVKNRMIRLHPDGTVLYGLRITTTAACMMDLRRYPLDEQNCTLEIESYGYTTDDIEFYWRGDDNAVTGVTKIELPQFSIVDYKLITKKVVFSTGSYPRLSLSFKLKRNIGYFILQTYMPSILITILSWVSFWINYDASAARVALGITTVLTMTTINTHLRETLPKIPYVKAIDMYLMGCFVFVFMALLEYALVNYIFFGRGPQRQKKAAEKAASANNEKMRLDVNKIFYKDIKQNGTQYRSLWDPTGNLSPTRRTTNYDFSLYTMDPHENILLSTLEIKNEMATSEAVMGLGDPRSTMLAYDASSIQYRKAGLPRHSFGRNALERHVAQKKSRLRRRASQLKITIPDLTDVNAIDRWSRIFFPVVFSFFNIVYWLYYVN
T1 sequence (P18507 40-475): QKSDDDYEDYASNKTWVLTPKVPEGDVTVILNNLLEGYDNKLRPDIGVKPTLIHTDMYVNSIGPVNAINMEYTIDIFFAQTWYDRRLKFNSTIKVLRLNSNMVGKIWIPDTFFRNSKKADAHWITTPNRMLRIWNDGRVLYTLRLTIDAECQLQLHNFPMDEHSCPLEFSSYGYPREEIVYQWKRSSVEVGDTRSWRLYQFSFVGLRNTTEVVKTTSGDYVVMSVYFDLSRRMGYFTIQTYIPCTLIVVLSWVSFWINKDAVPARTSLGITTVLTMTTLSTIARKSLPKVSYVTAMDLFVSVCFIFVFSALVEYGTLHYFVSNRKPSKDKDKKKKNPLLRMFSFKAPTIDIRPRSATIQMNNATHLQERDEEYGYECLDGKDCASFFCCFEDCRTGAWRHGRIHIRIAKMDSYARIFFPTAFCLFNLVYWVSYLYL
Experimental: On day 1, 1 ng/32 nL of GABAA α5β2γ2 cDNA was injected into one oocyte. Test starts on day 2. The cDNA injected to the oocytes was a mix of alpha, beta and gamma, their ratio is 1:1:10 (by weight) and the total weight of the mixed 3 subunits to be injected in one oocyte was 1 ng in 32 nl volume. The injected oocytes can also be tested on day 3. In such case, the cDNA amount injected to the oocytes should be reduced by 20%.
1). 8 oocytes were placed in 8 chambers of OpusXpress and superfused with Modified Barth's Saline (MBS) at 3 mL/min. Glass electrodes back-filled with 3M KCl (0.5-3 megaohms) were used.
1). New oocytes were used to run new test.
3). […] Oocytes were washed with MBS for 5-10 min.
4). […] Itest was divided by IGABA to obtain potentiation (%).
Test Compounds at Multiple Doses • 1). Repeat the above steps 1), 2) and 3) in the control test. • 2). […] Divide Itest by IGABA to obtain potentiation (%). • 3). Discard all tested oocytes, new oocytes were used and the above steps 1) and 2) were repeated to test second concentration of the same compound. Each oocyte was used for only one concentration test for a single test compound. The steps were repeated for other test compounds.

Sequence of α5β3γ2 GABAA receptors (P31644 32-462): as the sequence (P31644 32-462) above
Sequence of α5β3γ2 GABAA receptors (P28472 26-473 partner): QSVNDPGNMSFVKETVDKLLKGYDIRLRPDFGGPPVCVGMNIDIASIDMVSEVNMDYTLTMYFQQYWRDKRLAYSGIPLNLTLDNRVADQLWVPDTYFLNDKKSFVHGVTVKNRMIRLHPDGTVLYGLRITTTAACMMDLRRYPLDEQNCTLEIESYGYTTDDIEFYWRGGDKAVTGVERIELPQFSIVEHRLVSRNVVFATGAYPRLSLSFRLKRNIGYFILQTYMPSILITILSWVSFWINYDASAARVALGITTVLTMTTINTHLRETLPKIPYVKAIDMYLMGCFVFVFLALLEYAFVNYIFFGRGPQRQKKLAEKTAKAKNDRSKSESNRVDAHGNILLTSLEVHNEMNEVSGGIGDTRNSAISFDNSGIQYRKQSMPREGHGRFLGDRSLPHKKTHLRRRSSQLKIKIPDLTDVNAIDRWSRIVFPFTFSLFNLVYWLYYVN
Sequence of α5β3γ2 GABAA receptors (P18507 40-475): as the sequence (P18507 40-475) above

SMILES | Ki [1] | activation at 0.1 µM [2]
CCOc1ccc(C#Cc2ncn3c2Cn2c(COC)nnc2-c2cc(OC)ccc2-3)cn1 [Compound 710] | < 0.1 µM | 5 to 20%
Cc1cncc(C#Cc2ncn3c2Cc2cnnn2-c2cc(Cl)ccc2-3)c1 [Compound 618] | < 0.1 µM | 20 to 50%
COCc1nnc2n1Cc1c(C#Cc3cnc(C)cn3)ncn1-c1ccc(Cl)cc1-2 [Compound 582] | < 0.1 µM | > 50%
COc1ccc(C#Cc2ncn3c2Cc2cnnn2-c2cc(OC(F)F)ccc2-3)cn1 [Compound 555] | < 0.1 µM | 5 to 20%
COc1ccc2c(c1)-n1nncc1Cc1c(C#Cc3c[nH]nc3OC)ncn1-2 [Compound 663] | < 0.1 µM | 20 to 50%
COCc1nnc2n1Cc1c(C#Cc3ccn4ccnc4c3)ncn1-c1ccc(OC)cc1-2 [Compound 675] | < 0.1 µM | > 50%
Clc1ccc2c(c1)-n1nncc1Cc1c(COCc3ccccc3)ncn1-2 [Compound 544] | < 0.1 µM | 5 to 20%
COCc1nnc2n1Cc1c(C#Cc3ccn4ccnc4c3)ncn1-c1ccc(Cl)cc1-2 [Compound 679] | < 0.1 µM | > 50%
COc1ccc(C#Cc2ncn3c2Cc2cnnn2-c2cc(C(F)(F)F)ccc2-3)cn1 [Compound 553] | < 0.1 µM | 5 to 20%
Cc1nc(-c2ncn3c2Cc2c(Cc4ccc(F)cc4)nnn2-c2cc(C(F)(F)F)ccc2-3)no1 [Compound 493] | < 0.1 µM | 5 to 20%
FC(F)Oc1ccc2c(c1)-n1nncc1Cc1c(C#CC3(c4ccccc4)CC3)ncn1-2 [Compound 504] | < 0.1 µM | 5 to 20%
COc1ccc2c(c1)-n1nncc1Cc1c(C#Cc3cncc(C)c3)ncn1-2 [Compound 617] | < 0.1 µM | 5 to 20%
COc1ccc2c(c1)-n1nncc1Cc1c(C#Cc3cnc(C)[nH]3)ncn1-2 [Compound 668] | < 0.1 µM | > 50%
Cc1noc(-c2ncn3c2Cc2c(Cc4cccc(F)c4)nnn2-c2cc(C(F)(F)F)ccc2-3)n1 [Compound 482] | < 0.1 µM | 20 to 50%
COc1ccc2c(c1)-n1nncc1Cc1c(C#Cc3cnc(C)n3C)ncn1-2 [Compound 667] | < 0.1 µM | > 50%
Brc1ccc2c(c1)-n1nncc1Cc1c(C3=N[C@H](c4ccccc4)CO3)ncn1-2 [Compound 505] | < 0.1 µM | 20 to 50%
COCc1nnc2n1Cc1c(C#Cc3ccc(OC)c(C)n3)ncn1-c1ccc(Cl)cc1-2 [Compound 581] | < 0.1 µM | 20 to 50%
COc1ccc(C#Cc2ncn3c2Cc2cnnn2-c2cc(OC(F)F)ccc2-3)cc1 [Compound 498] | < 0.1 µM | 5 to 20%
COc1ccc(C#Cc2ncn3c2Cc2cnnn2-c2cc(C(F)(F)F)ccc2-3)cc1 [Compound 499] | < 0.1 µM | 20 to 50%
COc1ccc([C@@H]2COC(c3ncn4c3Cc3cnnn3-c3cc(OC)ccc3-4)=N2)cc1 [Compound 520] | < 0.1 µM | 5 to 20%
COCc1nnc2n1Cc1c(C#Cc3ccc(OC)cn3)ncn1-c1ccc(OC)cc1-2 [Compound 603] | < 0.1 µM | > 50%
COc1ccc2c(c1)-n1nncc1Cc1c(C3=N[C@H](c4ccc(Cl)cc4)CO3)ncn1-2 [Compound 517] | < 0.1 µM | 20 to 50%
FC(F)(F)c1ccc2c(c1)-n1nncc1Cc1c(C3=NC[C@@H](c4ccccc4)O3)ncn1-2 [Compound 624] | < 0.1 µM | 5 to 20%
COCc1nnc2n1Cc1c(C#Cc3ccc(=O)n(C)c3)ncn1-c1ccc(OC)cc1-2 [Compound 676] | < 0.1 µM | 5 to 20%
Clc1ccc([C@@H]2COC(c3ncn4c3Cc3cnnn3-c3cc(Cl)ccc3-4)=N2)cc1 [Compound 518] | < 0.1 µM | 5 to 20%

SMILES | Ki [1] | activation at 0.1 µM [2]
Fc1ccc([C@@H]2COC(c3ncn4c3Cc3cnnn3-c3cc(Cl)ccc3-4)=N2)cc1 [Compound 522] | < 0.1 µM | 5 to 20%
Cc1noc(-c2ncn3c2Cc2c(Cc4cccc(F)c4)nnn2-c2cc(OC(F)(F)F)ccc2-3)n1 [Compound 485] | < 0.1 µM | 5 to 20%
COCc1nnn2c1Cc1c(C#CC(C)(C)C)ncn1-c1ccc(Cl)cc1-2 [Compound 640] | < 0.1 µM | 20 to 50%
COCc1nnc2n1Cc1c(C#Cc3cnc(C)n3C)ncn1-c1ccc(Cl)cc1-2 [Compound 671] | < 0.1 µM | > 50%
CC(C)c1noc(-c2ncn3c2Cc2c(Cc4cccc(F)c4)nnn2-c2cc(Cl)ccc2-3)n1 [Compound 481] | < 0.1 µM | 5 to 20%
FC(F)(F)Oc1ccc2c(c1)-n1nncc1Cc1c(-c3ncco3)ncn1-2 [Compound 476] | < 0.1 µM | 5 to 20%
COCc1nnn2c1Cc1c(C#Cc3ccc(OC)nc3)ncn1-c1ccc(OC)cc1-2 [Compound 641] | < 0.1 µM | 20 to 50%
Cc1noc(-c2ncn3c2Cc2cnnn2-c2cc(-c4ccccc4)ccc2-3)n1 [Compound 474] | < 0.1 µM | 5 to 20%
COCc1nnc2n1Cc1c(C#Cc3ccnc(OC)c3)ncn1-c1ccc(Cl)cc1-2 [Compound 570] | < 0.1 µM | 5 to 20%
COCc1nnc2n1Cc1c(C#Cc3cnccn3)ncn1-c1ccc(OC)cc1-2 [Compound 589] | < 0.1 µM | > 50%
COc1ccc2c(c1)-n1nncc1Cc1c(C#CC(C)(C)C)ncn1-2 [Compound 535] | < 0.1 µM | 5 to 20%
Clc1ccc2c(c1)-n1nncc1Cc1c(-c3cn(Cc4ccccc4)nn3)ncn1-2 [Compound 523] | < 0.1 µM | 5 to 20%
COCc1nnc2n1Cc1c(C#Cc3cncc(OC)c3)ncn1-c1ccc(OC)cc1-2 [Compound 566] | < 0.1 µM | 5 to 20%
COCc1nnn2c1Cc1c(C#Cc3ccc(OC)nc3)ncn1-c1ccc(Cl)cc1-2 [Compound 633] | < 0.1 µM | 20 to 50%
COCc1nnc2n1Cc1c(C3=NC[C@@H](c4ccc(Cl)cc4)O3)ncn1-c1ccc(Cl)cc1-2 [Compound 717] | < 0.1 µM | > 50%
COCc1nnc2n1Cc1c(C#Cc3ncc(OC)cn3)ncn1-c1ccc(Cl)cc1-2 [Compound 574] | < 0.1 µM | > 50%
COCc1nnc2n1Cc1c(C#Cc3nc(C)cs3)ncn1-c1ccc(Cl)cc1-2 [Compound 605] | < 0.1 µM | > 50%
COCc1nnc2n1Cc1c(C#Cc3cnc4occc4c3)ncn1-c1ccc(OC)cc1-2 [Compound 674] | < 0.1 µM | 5 to 20%
COCc1nnc2n1Cc1c(C#Cc3cnc(C)s3)ncn1-c1ccc(Cl)cc1-2 [Compound 608] | < 0.1 µM | 20 to 50%
COCc1nnc2n1Cc1c(C#Cc3cnc(C)s3)ncn1-c1ccc(OC)cc1-2 [Compound 597] | < 0.1 µM | > 50%
COc1ccc2c(c1)-n1nncc1Cc1c(C#Cc3ccn(C)n3)ncn1-2 [Compound 670] | < 0.1 µM | > 50%
COCc1nnc2n1Cc1c(C#Cc3cncc(OC)c3)ncn1-c1ccc(Cl)cc1-2 [Compound 559] | < 0.1 µM | 5 to 20%
COc1ccc2c(c1)-n1nncc1Cc1c(C3=N[C@H](c4ccc(F)cc4)CO3)ncn1-2 [Compound 519] | < 0.1 µM | 20 to 50%
CC(C)c1noc(-c2ncn3c2Cc2c(Cc4ccc(F)cc4)nnn2-c2cc(OC(F)F)ccc2-3)n1 [Compound 494] | < 0.1 µM | 20 to 50%
COCc1nnc2n1Cc1c(C#Cc3cccc(C)n3)ncn1-c1ccc(Cl)cc1-2 [Compound 596] | < 0.1 µM | > 50%
